This is an account of results in patent publication US11666598B2 (priority 2019, dated 2023).

One assay relates to Escherichia coli (BL21). In words: In vitro E. coli bacterial growth assessment (optical density 600 nm). As to conditions: soluble; rich media (LB broth). In kind it is cell-based. As for the experimental part:
Escherichia coli (BL21) was expanded overnight in LB broth, then seeded (1:100) in fresh medium according to growth conditions. Experiments were carried out in modified M9 minimal medium supplemented with appropriate carbon source (Acetate: 1%, Glucose 0.4%) or LB broth (Lennox). Time course assessment of soluble small molecule inhibition was conducted in 96-well culture plates fitted with a breathable film to encourage aeration and cultured for indicated time with incremental optical density measurement (600 nm). Growth media containing solubilized acid was neutralized with sodium hydroxide (pH=7.0).
To determine polymer antimicrobial properties in solution, six well plates were cast with equal mass polymer samples and polymer free culture plate (polystyrene) controls. […] Silver nanoparticles (10 nm) and PLLA (Mn=85-110 kDa, Sigma) were used as positive and negative controls respectively. Soluble assessment of DMI was conducted using the method described for polymer samples using a 12 well plate format (1.5 mL/well).

In assay [1] the test system is murine bone marrow derived macrophages (BMDM). In words: Cytokine quantification in stimulated bone marrow derived macrophages. Format: cell-based, C57BL/6 mice. Conditions: 12 hr pretreatment, then LPS or LPS+IFNγ 12 hr; vs PLGA and insert free controls. As for the experimental part:
For experiments, cells were seeded at 90 000 cells cm^−2 in 6 well culture plates. […] Unstimulated cells treated with identical groups were used as a negative control.
Cytokine quantification was conducted on cell supernatants using a mouse 10-plex pro-inflammatory assay or an interferon beta single plex assay (Eve Technologies, Calgary, AB) and calculated using their standard curve. Nitrite content was determined using a Greiss Reagent Kit.

In another assay the test system is isocitrate lyase (ICL). Conditions: under glucose deprived conditions; cited from earlier work.

Molecules are shown by their SMILES.

As for `C=C(CC(=O)OC)C(=O)OC` [DMI, dimethyl itaconate], in the assay on Escherichia coli (BL21), the “concentration showing sensitivity on rich media” value was more than 7.5 mM. Besides, the IL-6 result in assay [1] is recorded as “marked”.

In the case of `C=C(CC(=O)O)C(=O)O` [ITA, itaconic acid], in the assay with isocitrate lyase (ICL), the “inhibition of isocitrate lyase (ICL)” value is “potent inhibitor”.
